Like-named read-outs stand apart in the source and are kept apart here. Blank lines part the entries; values can stand above or below the molecule they belong to.
What was measured:
progesterone receptor [1] = target: T1, progesterone receptor (Homo sapiens, UniProt P06401); experiment: Endocrine profile of the progesterone-receptor antagonist
T1 sequence (P06401 1-933): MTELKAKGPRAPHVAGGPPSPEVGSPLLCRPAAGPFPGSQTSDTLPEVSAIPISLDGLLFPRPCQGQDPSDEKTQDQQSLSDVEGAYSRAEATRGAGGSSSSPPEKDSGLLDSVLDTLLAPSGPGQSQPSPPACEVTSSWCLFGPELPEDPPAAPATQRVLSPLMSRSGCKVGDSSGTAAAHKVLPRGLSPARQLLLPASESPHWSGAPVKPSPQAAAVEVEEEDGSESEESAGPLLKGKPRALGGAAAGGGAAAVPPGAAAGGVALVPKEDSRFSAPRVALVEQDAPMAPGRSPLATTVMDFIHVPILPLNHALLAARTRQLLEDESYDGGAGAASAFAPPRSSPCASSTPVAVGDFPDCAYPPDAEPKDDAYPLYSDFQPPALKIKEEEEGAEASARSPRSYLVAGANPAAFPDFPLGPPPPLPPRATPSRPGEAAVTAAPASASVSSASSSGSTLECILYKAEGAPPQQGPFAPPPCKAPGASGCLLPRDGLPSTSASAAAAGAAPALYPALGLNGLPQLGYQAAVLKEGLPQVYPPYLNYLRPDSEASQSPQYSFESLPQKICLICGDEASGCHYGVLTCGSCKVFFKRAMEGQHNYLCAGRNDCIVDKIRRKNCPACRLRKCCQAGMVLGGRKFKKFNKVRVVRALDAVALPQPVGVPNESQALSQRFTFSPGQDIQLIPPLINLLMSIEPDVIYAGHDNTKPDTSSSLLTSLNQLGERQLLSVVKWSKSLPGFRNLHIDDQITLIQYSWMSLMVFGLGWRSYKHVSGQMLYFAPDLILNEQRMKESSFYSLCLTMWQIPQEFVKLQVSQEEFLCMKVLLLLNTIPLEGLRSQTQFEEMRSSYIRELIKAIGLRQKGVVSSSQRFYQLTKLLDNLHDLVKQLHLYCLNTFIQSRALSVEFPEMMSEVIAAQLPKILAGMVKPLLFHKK

tumor cells = experiment: Apoptosis of tumor cells
[2] = system: MCF-10 mammary cells and T47D breast cancer cells with BRCA1 and BRCA2 knock down; experiment: Growth of breast cells with siRNA BRCA1/BRCA2 knock down (Example 1); type: cell-based
Procedure: (§1) MCF-10 mammary cells and T47D breast cancer cells obtained from ATCC were treated with siRNA knocking down the BRCA1 and BRCA2 gene.
(§2) Cell growth in comparison to untransfected and mock transfected cells was compared. In a second step cells were stimulated either with progesterone and/or with estrogens. […] The effects on progesteron receptor protein expression were further investigated.

progesterone receptor [3] = target: T1, progesterone receptor; experiment: Progesterone receptor protein expression/stability after siRNA BRCA1 knock down (Example 3); type: cell-based
Procedure: (§3) MCF-10 mammary cells obtained from ATCC were treated with siRNA knocking down the BRCA1 and BRCA2 gene.
as §2

progesterone receptor [4] = target: T1, progesterone receptor; settings: Fuhrmann et al., J. Med. Chem. 2000; cited from earlier work
[5] = system: BRCA1-, respectively BRCA2-mediated mammary carcinogenesis; experiment: Mammary tumor formation in transgenic mice with breast-specific inactivation of p53 and BRCA1/BRCA2 (Example 2); type: in vivo; settings: mice monitored weekly for tumor formation; placebo group median tumor latency 6.6 months
Source text: To address the specific roles of progesterone receptors in BRCA1- and BRCA2-mediated tumorigenesis, transgenic mice with an organ specific inactivation of p53 and BRCA1, respectively BRCA2 in the breast tissue have been studied. Inactivation of both BRCA1, respectively BRCA2 and p53 or c-myc genes in the mouse mammary gland mimics the majority of human BRCA1-associated tumors, which also harbor p53 mutations.
Because progesterone is a potent mitogen for BRCA1, respectively BRCA2 p53 or c-myc Crec mammary epithelial cells, it was tested whether blockade of the progesterone receptor activity by the progesterone receptor antagonist 11β-(4-acetylphenyl)-17β-hydroxy-17α-(1,1,2,2,2-pentafluoroethyl)-estra-4,9-dien-3-one could prevent or delay mammary carcinogenesis. Mice were treated with a placebo or with 11β-(4-acetylphenyl)-17β-hydroxy-17α-(1,1,2,2,2-pentafluoroethyl)-estra-4,9-dien-3-one. The mice were monitored weekly for tumor formation. The median tumor latency of was 6.6 months for the placebo control group with all mice developing palpable tumors.

[6] = system: MCF-10 mammary cells with BRCA1 and BRCA2 knock down; experiment: Growth of MCF-10 cells with siRNA BRCA1/BRCA2 knock down (Example 3); type: cell-based; settings: co-treatment; MCF-10 siRNA knock down cells stimulated with progesterone and/or estrogens
Procedure: as §3, §2

progesterone receptor [7] = target: T1, progesterone receptor; experiment: Progesterone receptor protein expression/stability after siRNA BRCA1 knock down (Example 1); type: cell-based
Procedure: as §1, §2

Bioavailability = type: in vivo; settings: compared to ICI 182,780
[8] = administered orally; cited from earlier work
[9] = system: mammary tumors in Brca1/p53-deficient model; settings: mice with BRCA1- or BRCA2 inactivated in mammary glands; Poole et al., Science 2006; cited from earlier work

increased stability of progesterone receptor after BRCA1 knock down (progesterone receptor [3]): could be antagonized
increased stability of progesterone receptor after BRCA1 knock down (progesterone receptor [7]): could be antagonized
SMILES: CC(=O)c1ccc(C2C[C@@]3(C)[C@@H](CC[C@@]3(O)C(F)(F)C(F)(F)F)[C@@H]3CCC4=CC(=O)CCC4=C23)cc1 (stereo partly drawn) [11β-(4-acetylphenyl)-17β-hydroxy-17α-(1,1,2,2,2-pentafluoroethyl)-estra-4,9-dien-3-one]
endocrine side effects (androgen, estrogen or antiglucocorticoid activity) (progesterone receptor [1]): only very weak or no endocrine side effects
apoptosis of tumor cells (tumor cells): increased apoptosis of tumor cells
inhibition of the growth of BRCA1 knock down cells ([2]; Example 1): potent inhibition
antagonism of the effects of BRCA1 knock down (increased proliferation in the presence of progesterone) ([2]; co-treatment, siRNA knock down cells stimulated with progesterone and/or estrogens): able to antagonize the effects of BRCA1 knock down
antiprogestagenic activity (progesterone receptor [4]): high antiprogestagenic activity
other endocrinological effects (progesterone receptor [4]): little or no other endocrinological effects
palpable tumors [5]: no palpable tumors were detected
antagonism of the effects of BRCA1 knock down (increased proliferation in the presence of progesterone) [6]: able to antagonize the effects of BRCA1 knock down

bioavailability (Bioavailability): particularly high bioavailability
SMILES: CN(CCCCCCCC(F)(F)C(F)(F)F)CCCCCC1Cc2cc(O)ccc2C2C(F)CC3(C)C(CCC3(C)O)C12 (stereo not drawn) [11β-Fluoro-17α-methyl-7α-{5-[methyl(8,8,9,9,9-pentafluorononyl)-amino]pentyl}-estra-1,3,5(10)-triene-3,17β-diol]

SMILES: CC#C[C@]1(O)CC[C@H]2[C@@H]3CCC4=CC(=O)CCC4=C3[C@@H](c3ccc(N(C)C)cc3)C[C@@]21C [mifepristone]
bioavailability [8]: poor bioavailability
development of mammary tumors [9]: blocks the development of mammary tumors
